The compounds below were run against T1, human P2X7 receptor (Homo sapiens, UniProt Q99572) (assay: Ethidium Accumulation Assay). Conditions: HEK293 cells stably expressing human recombinant P2X7 receptors; 1 mM ATP; values given as 'about'; read-out: pIC50 for human P2X7 receptor antagonist activity (blocking ATP responses) in the Ethidium Accumulation Assay (converted).
T1 construct: expressed in transfected cells
T1 sequence (Q99572 1-595): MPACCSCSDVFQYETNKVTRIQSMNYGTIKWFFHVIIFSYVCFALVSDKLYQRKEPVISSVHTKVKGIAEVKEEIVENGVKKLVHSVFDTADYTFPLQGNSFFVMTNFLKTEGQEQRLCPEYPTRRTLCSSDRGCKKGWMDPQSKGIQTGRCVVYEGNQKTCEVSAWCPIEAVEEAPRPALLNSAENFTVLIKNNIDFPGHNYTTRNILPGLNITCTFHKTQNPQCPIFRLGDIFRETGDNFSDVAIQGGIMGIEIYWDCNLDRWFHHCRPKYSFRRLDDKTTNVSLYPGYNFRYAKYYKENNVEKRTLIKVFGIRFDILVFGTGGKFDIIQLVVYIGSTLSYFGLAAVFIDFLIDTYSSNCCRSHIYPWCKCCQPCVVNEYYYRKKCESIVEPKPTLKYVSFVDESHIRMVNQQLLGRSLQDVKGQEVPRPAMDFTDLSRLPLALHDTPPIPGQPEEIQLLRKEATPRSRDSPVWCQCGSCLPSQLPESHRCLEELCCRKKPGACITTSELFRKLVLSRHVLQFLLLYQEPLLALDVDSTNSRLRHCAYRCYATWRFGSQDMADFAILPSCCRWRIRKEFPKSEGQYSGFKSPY
Format: cell-based
Experimental: Studies were performed using NaCl assay buffer of the following composition: 140 mM NaCl, 10 mM HEPES [4-(2-hydroxyethyl)-1-piperazine-1-ethanesulfonic acid], 5 mM N-methyl-D-glucamine, 5.6 mM KCl, 10 mM D-glucose, 0.5 mM CaCl2 (pH 7.4).
Human Embryonic Kidney (HEK) 293 cells, stably expressing human recombinant P2X7 receptors, were grown in poly-D-lysine pre-treated 96 well plates for 18-24 hours. […] The cells were washed twice with 350 μl of the assay buffer, before addition of 50 μl of the assay buffer containing the putative P2X7 receptor antagonist compound. (A small amount of dimethyl sulfoxide, for initially dissolving the compound, is optionally used and present in this 50 μl test compound sample.) The cells were then incubated at room temperature (19-21° C.) for 30 min before addition of ATP and ethidium (100 μM final assay concentration). The ATP concentration was chosen to be close to the EC80 for the receptor type and was 1 mM for studies on the human P2X7 receptor. Incubations were continued for 8 or 16 min and were terminated by addition of 25 μl of 1.3M sucrose containing 4 mM of the P2X7 receptor antagonist Reactive Black 5 (Aldrich). […] Antagonist pIC50 values for blocking ATP responses were determined using iterative curve fitting techniques.

`Cc1ccccc1N1CCN(C(=O)c2cccc(C(F)(F)F)c2Cl)CC1=O` [Example 1, 4-{[2-Chloro-3-(trifluoromethyl)phenyl]carbonyl}-1-(2-methylphenyl)-2-piperazinone] and `O=C(c1cccc(C(F)(F)F)c1Cl)N1CCN(c2ccccc2Cl)C(=O)C1` [Example 9, 1-(2-Chlorophenyl)-4-{[2-chloro-3-(trifluoromethyl)phenyl]carbonyl}-2-piperazinone] fall in the same range of IC50: 5.01 to 200 nM for the first, 5.01 to 200 nM for the second.

`Cc1ccccc1N1CCN(C(=O)c2ccc(Cl)cc2Cl)CC1=O` [Example 2, 4-[(2,4-Dichlorophenyl)carbonyl]-1-(2-methylphenyl)-2-piperazinone] and `O=C(c1ccc(Cl)cc1Cl)N1CCN(c2ccccc2Cl)C(=O)C1` [Example 8, 1-(2-Chlorophenyl)-4-[(2,4-dichlorophenyl)carbonyl]-2-piperazinone] fall in the same range of IC50: 5.01 to 200 nM for the first, 5.01 to 200 nM for the second.

`Cc1ccccc1N1CCN(C(=O)c2cccc(Cl)c2Cl)CC1=O` [Example 4, 4-[(2,3-Dichlorophenyl)carbonyl]-1-(2-methylphenyl)-2-piperazinone] and `O=C(c1cccc(Cl)c1Cl)N1CCN(c2ccccc2Cl)C(=O)C1` [Example 6, 1-(2-Dichlorophenyl)-4-[(2,3-dichlorophenyl)carbonyl]-2-piperazinone] fall in the same range of IC50: 5.01 to 200 nM for the first, 5.01 to 200 nM for the second.

`O=C(c1ccc(F)cc1Cl)N1CCN(c2ccccc2Cl)C(=O)C1` [Example 5, 4-[(2-Chloro-4-fluorophenyl)carbonyl]-1-(2-chlorophenyl)-2-piperazinone] and `CC(C)c1ccccc1N1CCN(C(=O)c2ccc(F)cc2Cl)CC1=O` [Example 26, 4-[(2-chloro-4-fluorophenyl)carbonyl]-1-[2-(1-methylethyl)phenyl]-2-piperazinone] cannot be ordered by IC50: 5.01 to 200 nM for the first, 2.51 to 100 nM for the second.

`O=C(c1cccc(Cl)c1Cl)N1CCN(c2ccc(Cl)cc2)C(=O)C1` [Example 7, 1-(4-Chlorophenyl)-4-[(2,3-dichlorophenyl)carbonyl]-2-piperazinone] and `O=C(c1cccc(Cl)c1Cl)N1CCN(c2ccc(F)cc2)C(=O)C1` [Example 13, 4-[(2,3-Dichlorophenyl)carbonyl]-1-(4-fluorophenyl)-2-piperazinone] fall in the same range of IC50: 5.01 to 200 nM for the first, 5.01 to 200 nM for the second.

`O=C(c1cccc(C(F)(F)F)c1Cl)N1CCN(c2ccc(F)cc2Cl)C(=O)C1` [Example 10, 1-(2-Chloro-4-fluorophenyl)-4-{[2-chloro-3-(trifluoromethyl)phenyl]carbonyl}-2-piperazinone] and `O=C(c1cccc(C(F)(F)F)c1Cl)N1CCN(c2ccc(F)cc2F)C(=O)C1` [Example 21, 4-{[2-chloro-3-(trifluoromethyl)phenyl]carbonyl}-1-(2,4-difluorophenyl)-2-piperazinone] cannot be ordered by IC50: 5.01 to 200 nM for the first, 2.51 to 100 nM for the second.

`O=C(c1cccc(Cl)c1Cl)N1CCN(c2ccc(F)cc2Cl)C(=O)C1` [Example 11, 1-(2-Chloro-4-fluorophenyl)-4-[(2,3-dichlorophenyl)carbonyl]-2-piperazinone] and `O=C(c1cccc(Cl)c1Cl)N1CCN(c2ccc(F)cc2F)C(=O)C1` [Example 19, 4-[(2,3-Dichlorophenyl)carbonyl]-1-(2,4-difluorophenyl)-2-piperazinone] fall in the same range of IC50: 5.01 to 200 nM for the first, 5.01 to 200 nM for the second.

`O=C(c1cccc(C(F)(F)F)c1Cl)N1CCN(c2ccc(F)cc2)C(=O)C1` [Example 12, 4-{[2-Chloro-3-(trifluoromethyl)phenyl]carbonyl}-1-(4-fluorophenyl)-2-piperazinone] and `O=C(c1cccc(C(F)(F)F)c1Cl)N1CCN(c2cccc3ccccc23)C(=O)C1` [Example 24, 4-{[2-chloro-3-(trifluoromethyl)phenyl]carbonyl}-1-(1-naphthalenyl)-2-piperazinone] cannot be ordered by IC50: 5.01 to 200 nM for the first, 2.51 to 100 nM for the second.

`O=C(c1cccc(Cl)c1Cl)N1CCN(c2cccc(Cl)c2)C(=O)C1` [Example 14, 1-(3-Chlorophenyl)-4-[(2,3-dichlorophenyl)carbonyl]-2-piperazinone] and `Cc1cc(F)ccc1N1CCN(C(=O)c2cccc(Cl)c2Cl)CC1=O` [Example 28, 4-[(2,3-dichlorophenyl)carbonyl]-1-(4-fluoro-2-methylphenyl)-2-piperazinone] cannot be ordered by IC50: 5.01 to 200 nM for the first, 2.51 to 100 nM for the second.

`O=C1CN(C(=O)c2cccc(Cl)c2Cl)CCN1Cc1ccc(F)cc1Cl` [Example 15, 1-[(2-Chloro-4-fluorophenyl)methyl]-4-[(2,3-dichlorophenyl)carbonyl]-2-piperazinone] and `Cc1cccc(C(=O)N2CCN(c3ccc(F)cc3Cl)C(=O)C2)c1Cl` [Example 30, 1-(2-chloro-4-fluorophenyl)-4-[(2-chloro-3-methylphenyl)carbonyl]-2-piperazinone] cannot be ordered by IC50: 5.01 to 200 nM for the first, 2.51 to 100 nM for the second.

`CN1CCN(C(=O)c2cccc(Cl)c2Cl)CC1=O` [Example 16, 4-[(2,3-Dichlorophenyl)carbonyl]-1-methyl-2-piperazinone] and `CCN1CCN(C(=O)c2cccc(Cl)c2Cl)CC1=O` [Example 17, 4-[(2,3-Dichlorophenyl)carbonyl]-1-ethyl-2-piperazinone] fall in the same range of IC50: 5.01 to 200 nM for the first, 5.01 to 200 nM for the second.

`CC(C)N1CCN(C(=O)c2cccc(Cl)c2Cl)CC1=O` [Example 18, 4-[(2,3-Dichlorophenyl)carbonyl]-1-(1-methylethyl)-2-piperazinone] and `CC(C)CN1CCN(C(=O)c2cccc(Cl)c2Cl)CC1=O` [Example 39, 4-[(2,3-dichlorophenyl)carbonyl]-1-(2-methylpropyl)-2-piperazinone] cannot be ordered by IC50: 5.01 to 200 nM for the first, 2.51 to 100 nM for the second.

`O=C(c1cccc(Cl)c1Cl)N1CCN(c2cccc3ccccc23)C(=O)C1` [Example 22, 4-[(2,3-dichlorophenyl)carbonyl]-1-(1-naphthalenyl)-2-piperazinone] and `O=C(c1ccc(F)cc1Cl)N1CCN(c2cccc3ccccc23)C(=O)C1` [Example 23, 4-[(2-chloro-4-fluorophenyl)carbonyl]-1-(1-naphthalenyl)-2-piperazinone] fall in the same range of IC50: 2.51 to 100 nM for the first, 2.51 to 100 nM for the second.

`CC(C)c1ccccc1N1CCN(C(=O)c2cccc(C(F)(F)F)c2Cl)CC1=O` [Example 25, 4-{[2-chloro-3-(trifluoromethyl)phenyl]carbonyl}-1-[2-(1-methylethyl)phenyl]-2-piperazinone] and `CC(C)c1ccccc1N1CCN(C(=O)c2cccc(Cl)c2Cl)CC1=O` [Example 27, 4-[(2,3-dichlorophenyl)carbonyl]-1-[2-(1-methylethyl)phenyl]-2-piperazinone] fall in the same range of IC50: 2.51 to 100 nM for the first, 2.51 to 100 nM for the second.

`O=C(c1c(Cl)cccc1Cl)N1CCN(c2ccc(F)cc2Cl)C(=O)C1` [Example 31, 1-(2-chloro-4-fluorophenyl)-4-[(2,6-dichlorophenyl)carbonyl]-2-piperazinone] and `N#Cc1cc(F)ccc1N1CCN(C(=O)c2cccc(Cl)c2Cl)CC1=O` [Example 38, 2-{-4-[(2,3-dichlorophenyl)carbonyl]-2-oxo-1-piperazinyl}-5-fluorobenzonitrile] fall in the same range of IC50: 2.51 to 100 nM for the first, 2.51 to 100 nM for the second.

`O=C(c1ccc(F)c(F)c1Cl)N1CCN(c2ccc(F)cc2Cl)C(=O)C1` [Example 32, 4-[(2-chloro-3,4-difluorophenyl)carbonyl]-1-(2-chloro-4-fluorophenyl)-2-piperazinone] and `CN1CCN(C(=O)c2cccc(C(F)(F)F)c2Cl)CC1=O` [Example 35, 4-{[2-chloro-3-(trifluoromethyl)phenyl]carbonyl}-1-methyl-2-piperazinon] fall in the same range of IC50: 2.51 to 100 nM for the first, 2.51 to 100 nM for the second.
